Results on 20 compounds are retold here after paper PMC6305410, “High-Throughput Screening for Bacterial Glycosyltransferase Inhibitors” (Frontiers in Cellular and Infection Microbiology, 2018).

Each structure is given as a SMILES string.

The assay concerns the target T1, NleB1 (Escherichia coli, UniProt Q8XBX8).
T1 construct: GST-EHEC-NleB1 in pET42a (GST/His tagged), expressed in E. coli BL21 (DE3), nickel purified; some tag cleavage noted
As to conditions: inhibitor; for % NleB1 inhibition (µM compound) / 10: 10 µM; for % NleB1 inhibition (µM compound) / 20: 20 µM; for % NleB1 inhibition (µM compound) / 40: 40 µM; for % NleB1 inhibition (µM compound) / 80: 80 µM; for % NleB1 inhibition (µM compound) / 160: 160 µM.

For `O=c1cc(-c2ccccc2Cl)oc2c(NS(=O)(=O)c3cc(Cl)cc(Cl)c3O)ccc(O)c12` [KUC100066N], the “% NleB1 inhibition (µM compound) / 10” value is listed as 43.0%, the “% NleB1 inhibition (µM compound) / 20” value came to 71.1%, the “% NleB1 inhibition (µM compound) / 40” value came to 84.8% and the “% NleB1 inhibition (µM compound) / 80” value came to 96.0%. Further, the “% NleB1 inhibition (µM compound) / 160” value is 96.8%.
For `Cc1cccc(C(=O)N2CCC(=O)N([C@H](COCc3ccc(Cl)cc3)Cc3ccccc3)CC2)c1` [KUC100143N] the same measures were 35.9%, 38.0%, 39.2%, 42.0% and 63.3%.
For `O=C1CCN(S(=O)(=O)c2ccccc2)CCN1CCOCc1ccc(Cl)cc1` [KUC100988N] the same measures were 31.9%, 14.5%, 26.3%, 28.3% and 36.0%.
In the case of `O=C1CN(Cc2ccccc2)S(=O)(=O)c2ccccc21` [KUC101184N], the “% NleB1 inhibition (µM compound) / 10” value amounted to 2.9%, the “% NleB1 inhibition (µM compound) / 20” value came out at 18.5%, the “% NleB1 inhibition (µM compound) / 40” value is listed as 23.8% and the “% NleB1 inhibition (µM compound) / 80” value was 33.3%. Besides, the “% NleB1 inhibition (µM compound) / 160” value worked out at 44.7%.
For the compound `COc1ccc(C2CC(O)(c3ccccc3)Oc3c(C)ccc(C)c32)cc1` (stereo not shown) [KUC101437N], the “% NleB1 inhibition (µM compound) / 10” value is on record as 10.8%, the “% NleB1 inhibition (µM compound) / 20” value amounted to 13.9%, the “% NleB1 inhibition (µM compound) / 40” value is on record as 23.3% and the “% NleB1 inhibition (µM compound) / 80” value stood at 39.1%. Moreover, the “% NleB1 inhibition (µM compound) / 160” value was determined as 57.3%.
The corresponding values for `COc1ccc(C(CCN2CCOCC2)c2c(OC)cc(OC)c3c2OC(=O)CC3c2ccc(OC)cc2)cc1` (stereo not shown) [KUC101459N] are 14.9%, 26.2%, 9.4%, 18.8% and 44.1%.
For `CCCCCCC(=O)N1C/C=C\C(c2ccc(OC)cc2)N(Cc2ccc(F)cc2)C(=O)[C@@H]1Cc1ccccc1` (stereo partly shown) [KUC101608N] the same measures were 15.6%, 17.3%, 23.2%, 30.3% and 32.5%.
The corresponding values for `CCCCCCCCN1[C@@H](CC(=O)OC)c2cc(F)ccc2S1(=O)=O` [KUC101907N] are 23.0%, 22.1%, 22.4%, 29.9% and 42.2%.
Consider `CCCCCCCCCCCCN1[C@@H](CC(=O)O)c2cc(C(F)(F)F)ccc2S1(=O)=O` [KUC101994N], for which the “% NleB1 inhibition (µM compound) / 10” value is on record as 40.6%, the “% NleB1 inhibition (µM compound) / 20” value is recorded as 48.0%, the “% NleB1 inhibition (µM compound) / 40” value came to 60.1% and the “% NleB1 inhibition (µM compound) / 80” value stood at 80.4%. Moreover, the “% NleB1 inhibition (µM compound) / 160” value was 94.3%.
The corresponding values for `COc1cccc(N2[C@@H](CC(=O)O)c3ccc(/C=C/C(=O)O)cc3S2(=O)=O)c1` [KUC102262N] are 27.6%, 34.2%, 35.9%, 41.7% and 46.5%.
The corresponding values for `CCCCCCCCN1[C@@H](CC(=O)OC)c2ccc(/C=C/C(=O)OC)cc2S1(=O)=O` [KUC102268N] are 25.3%, 20.8%, 27.1%, 33.3% and 27.9%.
As for `CC(C)CN1CCC(=O)N(CCC#N)CC1` [KUC102485N], the “% NleB1 inhibition (µM compound) / 10” value turned out to be 16.0%, the “% NleB1 inhibition (µM compound) / 20” value is listed as 23.1%, the “% NleB1 inhibition (µM compound) / 40” value is 17.6% and the “% NleB1 inhibition (µM compound) / 80” value is 19.0%. For the same compound, the “% NleB1 inhibition (µM compound) / 160” value is 20.8%.
The corresponding values for `O=C(O)c1cc(-c2ccc(-c3c(-c4ccco4)noc3-c3ccccc3)cc2)nc2ccccc12` [KUC102644N] are 50.1%, 58.4%, 75.0%, 89.4% and 97.2%.
The corresponding values for `O=S1(=O)CCOC[C@H](c2ccccc2)N1Cc1ccc(Cl)c(Cl)c1` [KUC102739N] are 16.3%, 16.2%, 25.3%, 35.0% and 45.5%.
The corresponding values for `O=C(NC1CCC(=O)N(CCSc2ccccc2)CC1)OCc1ccccc1` (stereo not shown) [KUC102830N] are 16.9%, 20.9%, 21.9%, 25.7% and 38.2%.
Regarding `O=C1CCC[C@@H]2Cc3nc4ccc(O)cc4cc3[C@@H]3CCN1[C@H]23` [KUC103038N], the “% NleB1 inhibition (µM compound) / 10” value is 26.7%, the “% NleB1 inhibition (µM compound) / 20” value was 35.2%, the “% NleB1 inhibition (µM compound) / 40” value is listed as 34.4% and the “% NleB1 inhibition (µM compound) / 80” value was 47.9%. In addition, the “% NleB1 inhibition (µM compound) / 160” value was determined as 76.1%.
Take `C=CCN1CC[C@@H](O)C(=C)S1(=O)=O` [KUC103094N]: the “% NleB1 inhibition (µM compound) / 10” value was 19.8%, the “% NleB1 inhibition (µM compound) / 20” value is 23.8%, the “% NleB1 inhibition (µM compound) / 40” value was found to be 19.2% and the “% NleB1 inhibition (µM compound) / 80” value is listed as 18.2%. For the same compound, the “% NleB1 inhibition (µM compound) / 160” value turned out to be 18.0%.
The corresponding values for `C[C@@H]1NC(=O)O[C@H]1c1ccco1` [KUC103195N] are 23.8%, 25.6%, 28.1%, 33.5% and 23.9%.
As to `O=C1CS(=O)(=O)N(Cc2cccc(F)c2)c2ccc(Br)cc21` [KUC103319N], the “% NleB1 inhibition (µM compound) / 10” value is 32.5%, the “% NleB1 inhibition (µM compound) / 20” value worked out at 37.2%, the “% NleB1 inhibition (µM compound) / 40” value is 49.0% and the “% NleB1 inhibition (µM compound) / 80” value is recorded as 68.8%. For the same compound, the “% NleB1 inhibition (µM compound) / 160” value is given as 81.7%.
As to `C[C@@H](NS(=O)(=O)c1cc(Cl)ccc1F)[C@H](O)c1ccccc1` [KUC103993N], the “% NleB1 inhibition (µM compound) / 10” value is on record as 27.5%, the “% NleB1 inhibition (µM compound) / 20” value was 31.8%, the “% NleB1 inhibition (µM compound) / 40” value was determined as 31.8% and the “% NleB1 inhibition (µM compound) / 80” value is 34.5%. Further, the “% NleB1 inhibition (µM compound) / 160” value turned out to be 37.0%.
